“And” between values parts separate entries of the source, which are not always exact repeats. Identical values can stand only once. Like-named read-outs stand apart in the source and are kept apart here.
Key:
[1] = target: T1, FTPfHT (Plasmodium falciparum, UniProt Q7KWJ5); assay: Kinetic analysis of 2-DG uptake (Km) in HEK293 cells overexpressing FTPfHT; assay type: cell-based; set-up: the 38–40 kDa band represents full length PfHT; expressed in transfected cells; host or cells: HEK293-FLIP (HEK293); conditions: average of Expt 1-3
T1 sequence (Q7KWJ5 1-504): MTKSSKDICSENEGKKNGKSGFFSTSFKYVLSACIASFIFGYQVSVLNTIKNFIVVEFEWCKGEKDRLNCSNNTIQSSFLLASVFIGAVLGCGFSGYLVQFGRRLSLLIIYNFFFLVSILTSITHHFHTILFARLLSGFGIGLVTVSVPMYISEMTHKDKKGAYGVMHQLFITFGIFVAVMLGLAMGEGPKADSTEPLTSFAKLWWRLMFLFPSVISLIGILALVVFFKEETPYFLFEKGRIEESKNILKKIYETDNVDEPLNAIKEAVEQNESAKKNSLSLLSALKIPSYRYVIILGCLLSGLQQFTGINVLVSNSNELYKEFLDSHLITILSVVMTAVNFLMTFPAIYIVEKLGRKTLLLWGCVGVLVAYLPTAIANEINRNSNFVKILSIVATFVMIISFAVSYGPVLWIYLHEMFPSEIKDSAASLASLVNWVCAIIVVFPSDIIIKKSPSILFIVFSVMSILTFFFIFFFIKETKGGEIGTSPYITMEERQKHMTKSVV
Description: (§3) Glucose uptake by P. falciparum was performed essentially as described [23]. P. falciparum strain 3D7 was cultured in 100 mm tissue culture dishes (Techno Plastic Products) in a 2% suspension of human erythrocytes and RPMI 1640 medium until reaching > 7.5% parasitemia. Cells were pelleted via centrifugation and resuspended in RPMI 1640 medium. To determine the uptake of radiolabeled glucose into the parasite, parasites were isolated from infected erythrocytes by permeablization with saponin (0.05 w/v), followed by centrifugation, aspiration of supernatant and washing of the pellet 3X with saline solution (135 mM NaCl, 2 mM KCl, 25 mM HEPES, 0.2 mM glucose and 1 mM MgCl2; pH 7.1) to remove cellular debris. […] The ratio of the estimated intracellular concentration of radiolabel relative to the extracellular concentration were calculated as described [23]. Uptake of radiolabeled hexose into HEK293 cells was measured in glucose-free HBSS as described previously [24]. […] After 30-min incubation at 37°C in glucose-free HBSS in the presence of vehicle or increasing concentrations of compound, 2-DG uptake was measured in glucose-free HBSS for 4 min at 37°C. […] Radiolabeled hexose uptake was determined by liquid scintillation counting (Ultima Gold, Thermo Fisher) and normalized to total protein per well. […]

[2] = target: T2, PfHT (Plasmodium falciparum, UniProt Q7KWJ5); assay: Kinetic analysis of 2-DG uptake (Km) in HEK293 cells overexpressing PfHT
T2 sequence (Q7KWJ5 1-504): T1 sequence (Q7KWJ5 1-504)
Description: (§4) Glucose uptake by P. falciparum was performed essentially as described [23]. P. falciparum strain 3D7 was cultured in 100 mm tissue culture dishes (Techno Plastic Products) in a 2% suspension of human erythrocytes and RPMI 1640 medium until reaching > 7.5% parasitemia. Cells were pelleted via centrifugation and resuspended in RPMI 1640 medium. To determine the uptake of radiolabeled glucose into the parasite, parasites were isolated from infected erythrocytes by permeablization with saponin (0.05 w/v), followed by centrifugation, aspiration of supernatant and washing of the pellet 3X with saline solution (135 mM NaCl, 2 mM KCl, 25 mM HEPES, 0.2 mM glucose and 1 mM MgCl2; pH 7.1) to remove cellular debris. WU-1 or DMSO vehicle were added to 100 μl parasites (resuspended in saline) 5 min prior to the addition of 100 μl [^14C]2-DOG (0.2- μCi/ml final concentration). 2-DG uptake was stopped after 2 min by layering the entire reaction over 300 μl of an oil mixture (5:4 mix of dibutyl phthalate / dinonyl phthalate) in Eppendorf tubes and centrifuged at 15,850 × g for 2 mins. The ratio of the estimated intracellular concentration of radiolabel relative to the extracellular concentration were calculated as described [23]. Uptake of radiolabeled hexose into HEK293 cells was measured in glucose-free HBSS as described previously [24]. Briefly, cells were plated at 400,000 cells/well overnight at 37°C in 24-well plates pre-treated with PEI. After 30-min incubation at 37°C in glucose-free HBSS in the presence of vehicle or increasing concentrations of compound, 2-DG uptake was measured in glucose-free HBSS for 4 min at 37°C. Cultures were washed in ice-cold 1X PBS and lysed in 0.1% Triton X-100 in 1X PBS. Radiolabeled hexose uptake was determined by liquid scintillation counting (Ultima Gold, Thermo Fisher) and normalized to total protein per well. Uptake data are plotted as percent uptake relative to vehicle-treated cells. Kinetic analyses were performed using the indicated concentrations of substrate and WU-1, with quenching of uptake after 1 min incubation. […] Data were fit by least squares nonlinear regression analysis using GraphPad Prism 6.0 software.

[3] = system: GLUT1 Y293I; set-up: method as in PMID 8157690; conditions: GLUT1 Y293I vs wild type; cited from earlier work
[4] = target: T1, FTPfHT; assay: 2-DG uptake by HEK293 cells overexpressing FLAG-tagged PfHT (FTPfHT); assay type: cell-based; set-up: the 38–40 kDa band represents full length PfHT; expressed in transfected cells; host or cells: HEK293-FLIP (HEK293); key to 2-DG Uptake AVE: % uptake relative to vehicle-treated cells
Description: (§1) Generation of HEK293 cells overexpressing PfHT and human GLUTs 1–4 were described elsewhere. Briefly, HEK293 cells were transfected with pcDNA3.1 FLII12Pglu-7006 (Addgene), containing the fluorescence resonance energy transfer (FRET) glucose sensor (HEK293-FLIP) and PfHT, human GLUT1 (hGLUT1), hGLUT2, hGLUT3, hGLUT4, hGLUT5 or hGLUT8 using Optifect (Life Technologies) according to manufacturer’s specifications. To increase retention of GLUT8 at the plasma membrane, the dileucine sorting signal E^7E^8XXXLL was modified to R^7R^8XXXLL as described in [17]. Stable transfectants were selected for G418 and hygromycin resistance to select for FRET sensor and hexose transporter, respectively. HEK293-FLIP cells were also used to generate cells stably transfected with FLAG-tagged PfHT (FTPfHT). FLAG tag ([…]) followed by a triple glycine linker and a tobacco etch virus (TEV) protease site (ENLYFQS) followed by a triple glycine linker was added to the N-terminus of PfHT via PCR [18] using Phusion Hot Start II High-Fidelity DNA Polymerase (Fisher Scientific). Single clones were selected by comparing their abilities to transport glucose as assayed via FRET and radiolabeled hexose uptake. In all cell lines, except for HEK293 cells overexpressing hGLUT1 and hGLUT5, native hGLUT1 was knocked down using shRNA as described elsewhere. Transcript levels of the individual GLUTs expressed in each cell line are as described in [13, 15] and in S1 Fig.
(§2) Glucose uptake by P. falciparum was performed essentially as described. P. falciparum strain 3D7 was cultured in 100 mm tissue culture dishes (Techno Plastic Products) in a 2% suspension of human erythrocytes and RPMI 1640 medium until reaching > 7.5% parasitemia. Cells were pelleted via centrifugation and resuspended in RPMI 1640 medium. To determine the uptake of radiolabeled glucose into the parasite, parasites were isolated from infected erythrocytes by permeablization with saponin (0.05 w/v), followed by centrifugation, aspiration of supernatant and washing of the pellet 3X with saline solution (135 mM NaCl, 2 mM KCl, 25 mM HEPES, 0.2 mM glucose and 1 mM MgCl2; pH 7.1) to remove cellular debris. WU-1 or DMSO vehicle were added to 100 μl parasites (resuspended in saline) 5 min prior to the addition of 100 μl [^14C]2-DOG (0.2- μCi/ml final concentration). 2-DG uptake was stopped after 2 min by layering the entire reaction over 300 μl of an oil mixture (5:4 mix of dibutyl phthalate / dinonyl phthalate) in Eppendorf tubes and centrifuged at 15,850 × g for 2 mins. The ratio of the estimated intracellular concentration of radiolabel relative to the extracellular concentration were calculated as described. Uptake of radiolabeled hexose into HEK293 cells was measured in glucose-free HBSS as described previously. Briefly, cells were plated at 400,000 cells/well overnight at 37°C in 24-well plates pre-treated with PEI. After 30-min incubation at 37°C in glucose-free HBSS in the presence of vehicle or increasing concentrations of compound, 2-DG uptake was measured in glucose-free HBSS for 4 min at 37°C. Cultures were washed in ice-cold 1X PBS and lysed in 0.1% Triton X-100 in 1X PBS. Radiolabeled hexose uptake was determined by liquid scintillation counting (Ultima Gold, Thermo Fisher) and normalized to total protein per well. Uptake data are plotted as percent uptake relative to vehicle-treated cells. Kinetic analyses were performed using the indicated concentrations of substrate and WU-1, with quenching of uptake after 1 min incubation. Incubation times had been previously determined as being in the linear range of time-dependent radiolabeled hexose uptake (2 min for 2-DG uptake into freed parasites; 2 and 4 min for D-Frc and 2-DG uptake HEK cell lines, respectively). Data were fit by least squares nonlinear regression analysis using GraphPad Prism 6.0 software.

[5] = target: T2, PfHT; assay: 2-DG uptake by HEK293 cells overexpressing PfHT; assay type: cell-based; set-up: expressed in transfected cells; host or cells: HEK293 (HEK293-FLIP, native hGLUT1 knocked down by shRNA)
Description: as §1, §2

[6] = system: blood stage parasites; set-up: method as in PMID 26248369; conditions: read-out: IC50 against blood stage parasites; cited from earlier work
[7] = substrate: O=CC[C@@H](O)[C@H](O)[C@H](O)CO; assay: cells, lysate or membranes; assay type: cell-based, Plasmodium falciparum; conditions: other: 2-DG uptake (1 min), FTPfHT; pH 7.1; 37.0 °C
Description: as §3

[8] = substrate: O=CC[C@@H](O)[C@H](O)[C@H](O)CO; assay: cells, lysate or membranes; conditions: other: 2-DG uptake (1 min), PfHT; pH 7.1; 37.0 °C
Description: as §4

For `O=C(CO)[C@@H](O)[C@H](O)[C@H](O)CO` [D-frc], the “Km (1/v) D-frc uptake: AVE IC50” value [1] was 2.07 mM, the “Km (1/v) D-frc uptake: AVE IC50” value ([2]; average of Expt 1-3) was 1.83 mM and the “Km (1/v) D-frc uptake: IC50” value ([2]; single experiments Expt 1-3) was 2.5 mM and 1.6 mM and 1.38 mM.

For `CC1OC[C@H]2O[C@H](O)[C@H](O)[C@@H](O)[C@@H]2O1` (stereo partly drawn) [Ethylideneglucose, 4,6-O-ethylidene-α-D-glucose, reference compound], the “decrease of Ki by Y293I mutation” value [3] is listed as over 2 fold, the IC50 ([4]; FTPfHT, 2-DG Uptake, single experiments Expt 1-3, read-out: IC50) is listed as 1.49 mM and 1.83 mM and 1.17 mM and the “2-DG Uptake AVE” value ([4]; FTPfHT, concentration 0.001 mM, Expt 1-3) is listed as 100.00. For the same molecule, the “2-DG Uptake AVE” value ([4]; FTPfHT, concentration 0.0390625 mM) was 96.35, the “2-DG Uptake AVE” value ([4]; FTPfHT, concentration 0.078125 mM) was 89.02 and 99.10 and 95.29 and the “2-DG Uptake AVE” value ([4]; FTPfHT, concentration 0.15625 mM) was 83.11 and 96.24 and 85.58. For the same molecule, the “2-DG Uptake AVE” value ([4]; FTPfHT, concentration 0.3125 mM) was 83.21 and 82.95 and 84.08, the “2-DG Uptake AVE” value ([4]; FTPfHT, concentration 0.63 mM) was 73.60 and 68.20 and 76.54 and the “2-DG Uptake AVE” value ([4]; FTPfHT, concentration 1.25 mM) was 62.34 and 52.24 and 56.96. For the same molecule, the “2-DG Uptake AVE” value ([4]; FTPfHT, concentration 2.5 mM) was 40.70 and 31.77 and 32.91, the “2-DG Uptake AVE” value ([4]; FTPfHT, concentration 5 mM) was 18.95 and 15.78 and 18.06 and the “2-DG Uptake AVE” value ([4]; FTPfHT, concentration 10 mM) was 13.87 and 9.18 and 10.65. For the same molecule, the “2-DG Uptake AVE” value ([4]; FTPfHT, concentration 20 mM) was 7.63 and 6.14 and 7.00, the “2-DG Uptake AVE” value ([4]; FTPfHT, concentration 40 mM) was 5.44 and 4.46 and 5.15 and the “2-DG Uptake AVE” value ([4]; FTPfHT, concentration 80 mM) was 5.14 and 3.60. The IC50 ([4]; read-out: IC50 for inhibition of 2-DG uptake, HEK293 cells overexpressing FTPfHT) was 1.5 ± 0.2 mM, the IC50 ([5]; PfHT, 2-DG Uptake, average of Expt 1-3, read-out: AVE IC50) was 5.79 mM and the IC50 ([5]; PfHT, 2-DG Uptake, single experiments Expt 1-3, read-out: IC50) was 5.99 mM. For the same molecule, the “2-DG Uptake AVE” value ([5]; PfHT, concentration 0.001 mM, Expt 1-3) was 100.00, the “2-DG Uptake AVE” value ([5]; PfHT, concentration 0.3125 mM) was 94.37 and 96.75 and 86.10 and the “2-DG Uptake AVE” value ([5]; PfHT, concentration 0.625 mM) was 89.78 and 84.91 and 77.97. The “2-DG Uptake AVE” value ([5]; PfHT, concentration 1.25 mM) was 82.38 and 77.88 and 79.22, the “2-DG Uptake AVE” value ([5]; PfHT, concentration 2.5 mM) was 70.45 and 76.21 and 65.14 and the “2-DG Uptake AVE” value ([5]; PfHT, concentration 5 mM) was 56.80 and 57.04 and 54.41. The “2-DG Uptake AVE” value ([5]; PfHT, concentration 10 mM) was 38.62 and 35.32 and 38.49, the “2-DG Uptake AVE” value ([5]; PfHT, concentration 20 mM) was 25.77 and 23.49 and 21.21 and the “2-DG Uptake AVE” value ([5]; PfHT, concentration 40 mM) was 17.24 and 14.68 and 18.76. The “2-DG Uptake AVE” value ([5]; PfHT, concentration 80 mM) was 11.01 and 10.15 and 11.14, the “2-DG Uptake AVE” value ([5]; PfHT, concentration 160 mM) was 6.85 and 7.66 and 8.85 and the “2-DG Uptake AVE” value ([5]; PfHT, concentration 320 mM) was 4.36 and 4.29 and 5.25. It also gave an IC50 ([5]; read-out: IC50 for inhibition of 2-DG uptake, HEK293 cells overexpressing PfHT) of 5.9 ± 0.15 mM.

For `Cc1cccc(C)c1OCC(=O)N[C@@H](Cc1ccccc1)[C@@H](O)C[C@H](Cc1ccccc1)NC(=O)[C@H](C(C)C)N1CCCNC1=O` [lopinavir], the IC50 [6] is given as 16 µM.

B1: FTPfHT (Plasmodium falciparum 3D7) (protein)
chain: T1 sequence (Q7KWJ5 1-504)
notes: the 38–40 kDa band represents full length PfHT; expressed in transfected cells; host or cells: HEK293-FLIP (HEK293)
B1 gave a Km [7] of 2.1 ± 0.5 mM.

B2: PfHT (Plasmodium falciparum 3D7) (protein)
chain: T1 sequence (Q7KWJ5 1-504)
With B2 the Km [8] was 1.8 ± 0.3 mM.

From PMC6508677, “Identification of druggable small molecule antagonists of the Plasmodium falciparum hexose transporter PfHT and assessment of ligand access to the glucose permeation pathway via FLAG-mediated protein engineering” (PLoS ONE, 2019)
